From patent US20100168103A1, “DIARYL PIPERIDINE COMPOUNDS AS CALCIUM CHANNEL BLOCKERS” (NEUROMED PHARMACEUTICALS LTD., priority 2006, published 2010)
Where two headings read alike, the source gives them in different places.

Biological target: T1, rat brain N-type calcium channel subunits (α1B+α2δ+β1b cDNA subunits) (Rattus norvegicus, UniProt Q02294)
T1 construct: expressed in transfected cells; host or cells: HEK 293
Test: N-type calcium channel block, whole cell patch clamp in transfected HEK 293 cells
Format: cell-based
Settings: holding potential −80 mV to +10 mV
Protocol: N-type calcium channel blocking activity was assayed in human embryonic kidney cells, HEK 293, stably transfected with the rat brain N-type calcium channel subunits (α1B+α2δ+β1b cDNA subunits). Alternatively, N-type calcium channels (α1B+α2δ+β1b cDNA subunits), L-type channels (α1C+α2δ+β1b cDNA subunits) and P/Q-type channels (α1A+α2δ+β1b cDNA subunits) were transiently expressed in HEK 293 cells. Briefly, cells were cultured in Dulbecco's modified eagle medium (DMEM) supplemented with 10% fetal bovine serum, 200 U/ml penicillin and 0.2 mg/ml streptomycin at 37° C. with 5% CO2. At 85% confluency cells were split with 0.25% trypsin/1 mM EDTA and plated at 10% confluency on glass coverslips. At 12 hours the medium was replaced and the cells transiently transfected using a standard calcium phosphate protocol and the appropriate calcium channel cDNA's. Fresh DMEM was supplied and the cells transferred to 28° C./5% CO2. Cells were incubated for 1 to 2 days prior to whole cell recording.
Whole cell patch clamp experiments were performed using an Axopatch 200B amplifier (Axon Instruments, Burlingame, Calif.) linked to a personal computer equipped with pCLAMP software. The external and internal recording solutions contained, respectively, 5 mM BaCl2, 10 mM MgCl2, 10 mM HEPES, 40 mM TEACl, 10 mM glucose, 87.5 mM CsCl (pH 7.2) and 108 mM CsMS, 4 mM MgCl2, 9 mM EGTA, 9 mM HEPES (pH 7.2). Currents were typically elicited from a holding potential of −80 mV to +10 mV using Clampex software (Axon Instruments). Typically, currents were first elicited with low frequency stimulation (0.067 Hz) and allowed to stabilize prior to application of the compounds. The compounds were then applied during the low frequency pulse trains for two to three minutes to assess tonic block, and subsequently the pulse frequency was increased to 0.2 Hz to assess frequency dependent block. Data were analyzed using Clampfit (Axon Instruments) and SigmaPlot 4.0 (Jandel Scientific).

[1] = low frequency stimulation 0.067 Hz (tonic block), 5 mM BaCl2, read-out: IC50 @ 0.067 Hz
[2] = pulse frequency 0.2 Hz (frequency dependent block), 5 mM BaCl2, read-out: IC50 @ 0.2 Hz

T1 sequence (Q02294 whole entry): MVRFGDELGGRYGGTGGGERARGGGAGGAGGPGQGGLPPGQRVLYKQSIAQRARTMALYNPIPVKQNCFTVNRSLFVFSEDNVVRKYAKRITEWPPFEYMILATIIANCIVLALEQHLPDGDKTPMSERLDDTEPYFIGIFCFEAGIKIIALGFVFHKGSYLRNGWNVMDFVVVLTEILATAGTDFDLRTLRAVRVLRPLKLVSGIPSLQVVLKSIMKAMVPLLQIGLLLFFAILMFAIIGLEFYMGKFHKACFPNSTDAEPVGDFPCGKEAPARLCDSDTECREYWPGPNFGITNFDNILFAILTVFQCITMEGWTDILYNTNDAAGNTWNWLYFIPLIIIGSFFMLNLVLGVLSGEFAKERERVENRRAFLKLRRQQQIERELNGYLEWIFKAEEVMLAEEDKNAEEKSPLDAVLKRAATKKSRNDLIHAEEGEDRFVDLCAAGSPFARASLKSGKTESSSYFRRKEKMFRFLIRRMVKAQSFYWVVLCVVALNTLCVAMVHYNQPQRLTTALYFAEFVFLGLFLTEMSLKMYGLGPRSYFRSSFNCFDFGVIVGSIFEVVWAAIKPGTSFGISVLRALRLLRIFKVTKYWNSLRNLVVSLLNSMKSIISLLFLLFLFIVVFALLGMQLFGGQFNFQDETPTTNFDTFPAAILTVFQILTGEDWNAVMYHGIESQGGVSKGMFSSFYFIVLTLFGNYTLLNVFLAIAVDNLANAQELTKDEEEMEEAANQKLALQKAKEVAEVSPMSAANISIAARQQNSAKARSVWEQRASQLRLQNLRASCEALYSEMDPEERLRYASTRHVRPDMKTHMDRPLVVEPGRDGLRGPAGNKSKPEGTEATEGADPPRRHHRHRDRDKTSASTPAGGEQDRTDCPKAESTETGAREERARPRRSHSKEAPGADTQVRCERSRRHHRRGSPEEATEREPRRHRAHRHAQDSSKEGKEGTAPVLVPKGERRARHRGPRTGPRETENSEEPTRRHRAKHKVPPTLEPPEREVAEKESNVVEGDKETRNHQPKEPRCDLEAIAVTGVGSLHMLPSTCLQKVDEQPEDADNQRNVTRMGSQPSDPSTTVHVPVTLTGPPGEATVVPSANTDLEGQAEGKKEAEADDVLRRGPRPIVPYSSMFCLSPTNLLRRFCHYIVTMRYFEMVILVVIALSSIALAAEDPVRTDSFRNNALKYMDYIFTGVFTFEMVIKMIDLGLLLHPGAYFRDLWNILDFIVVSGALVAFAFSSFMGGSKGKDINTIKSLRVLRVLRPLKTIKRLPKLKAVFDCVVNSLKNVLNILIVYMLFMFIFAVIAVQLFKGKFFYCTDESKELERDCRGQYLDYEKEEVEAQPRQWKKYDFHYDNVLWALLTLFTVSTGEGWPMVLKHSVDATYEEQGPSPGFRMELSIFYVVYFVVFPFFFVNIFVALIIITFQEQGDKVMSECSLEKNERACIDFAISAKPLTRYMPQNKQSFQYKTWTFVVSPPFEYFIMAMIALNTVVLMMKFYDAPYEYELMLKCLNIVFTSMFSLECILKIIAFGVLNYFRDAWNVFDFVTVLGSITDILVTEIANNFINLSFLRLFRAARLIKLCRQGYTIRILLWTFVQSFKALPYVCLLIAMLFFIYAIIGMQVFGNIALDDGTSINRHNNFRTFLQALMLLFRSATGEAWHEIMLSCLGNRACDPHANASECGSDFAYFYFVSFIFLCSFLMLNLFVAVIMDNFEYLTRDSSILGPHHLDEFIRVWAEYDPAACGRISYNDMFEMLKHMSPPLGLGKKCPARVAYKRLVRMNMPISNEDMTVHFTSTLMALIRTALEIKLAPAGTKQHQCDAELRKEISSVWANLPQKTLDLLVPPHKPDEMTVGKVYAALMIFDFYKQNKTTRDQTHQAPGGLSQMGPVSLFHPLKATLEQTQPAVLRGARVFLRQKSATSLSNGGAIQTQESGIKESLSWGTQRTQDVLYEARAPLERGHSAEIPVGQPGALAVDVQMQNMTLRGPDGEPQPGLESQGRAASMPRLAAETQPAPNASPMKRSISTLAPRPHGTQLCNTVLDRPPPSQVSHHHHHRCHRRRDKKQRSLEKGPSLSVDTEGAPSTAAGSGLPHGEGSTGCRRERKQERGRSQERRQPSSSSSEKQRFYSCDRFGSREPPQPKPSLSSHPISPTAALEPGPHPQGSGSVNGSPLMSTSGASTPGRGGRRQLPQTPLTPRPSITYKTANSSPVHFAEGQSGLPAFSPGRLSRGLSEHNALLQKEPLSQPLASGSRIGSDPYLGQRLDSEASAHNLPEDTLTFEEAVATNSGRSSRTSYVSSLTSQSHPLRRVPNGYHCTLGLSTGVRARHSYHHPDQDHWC
T1 sequence (P54290 25-944 partner limits assumed): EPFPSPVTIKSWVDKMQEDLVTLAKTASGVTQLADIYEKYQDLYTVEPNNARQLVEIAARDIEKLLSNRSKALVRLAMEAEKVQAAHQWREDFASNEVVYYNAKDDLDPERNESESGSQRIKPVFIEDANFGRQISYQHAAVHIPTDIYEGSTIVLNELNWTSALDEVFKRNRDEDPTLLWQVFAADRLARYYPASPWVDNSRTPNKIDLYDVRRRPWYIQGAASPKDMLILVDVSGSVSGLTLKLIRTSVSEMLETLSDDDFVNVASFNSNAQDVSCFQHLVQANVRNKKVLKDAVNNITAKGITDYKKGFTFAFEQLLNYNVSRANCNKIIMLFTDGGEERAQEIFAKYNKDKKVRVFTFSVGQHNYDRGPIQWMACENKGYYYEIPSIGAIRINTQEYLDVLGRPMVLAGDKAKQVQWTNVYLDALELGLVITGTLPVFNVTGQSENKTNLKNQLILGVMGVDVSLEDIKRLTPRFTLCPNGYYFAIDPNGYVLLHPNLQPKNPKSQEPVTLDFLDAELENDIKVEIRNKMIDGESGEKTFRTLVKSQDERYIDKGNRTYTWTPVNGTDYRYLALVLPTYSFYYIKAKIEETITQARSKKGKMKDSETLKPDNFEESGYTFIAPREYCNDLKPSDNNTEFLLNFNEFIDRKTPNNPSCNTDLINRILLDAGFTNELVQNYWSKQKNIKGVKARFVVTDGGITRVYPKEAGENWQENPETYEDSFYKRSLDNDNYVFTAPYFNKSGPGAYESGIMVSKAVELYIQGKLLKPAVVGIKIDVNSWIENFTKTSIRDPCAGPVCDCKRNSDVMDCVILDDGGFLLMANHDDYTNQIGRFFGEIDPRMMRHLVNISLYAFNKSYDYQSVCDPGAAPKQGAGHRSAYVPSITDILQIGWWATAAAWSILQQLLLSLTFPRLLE
T1 sequence (P54290 945-1091 partner limits assumed): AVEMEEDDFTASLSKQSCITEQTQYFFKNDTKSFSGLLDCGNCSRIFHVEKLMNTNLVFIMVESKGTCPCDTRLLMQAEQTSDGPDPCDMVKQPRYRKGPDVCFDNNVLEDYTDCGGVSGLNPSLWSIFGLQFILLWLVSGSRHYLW
T1 sequence (P54283 whole entry partner): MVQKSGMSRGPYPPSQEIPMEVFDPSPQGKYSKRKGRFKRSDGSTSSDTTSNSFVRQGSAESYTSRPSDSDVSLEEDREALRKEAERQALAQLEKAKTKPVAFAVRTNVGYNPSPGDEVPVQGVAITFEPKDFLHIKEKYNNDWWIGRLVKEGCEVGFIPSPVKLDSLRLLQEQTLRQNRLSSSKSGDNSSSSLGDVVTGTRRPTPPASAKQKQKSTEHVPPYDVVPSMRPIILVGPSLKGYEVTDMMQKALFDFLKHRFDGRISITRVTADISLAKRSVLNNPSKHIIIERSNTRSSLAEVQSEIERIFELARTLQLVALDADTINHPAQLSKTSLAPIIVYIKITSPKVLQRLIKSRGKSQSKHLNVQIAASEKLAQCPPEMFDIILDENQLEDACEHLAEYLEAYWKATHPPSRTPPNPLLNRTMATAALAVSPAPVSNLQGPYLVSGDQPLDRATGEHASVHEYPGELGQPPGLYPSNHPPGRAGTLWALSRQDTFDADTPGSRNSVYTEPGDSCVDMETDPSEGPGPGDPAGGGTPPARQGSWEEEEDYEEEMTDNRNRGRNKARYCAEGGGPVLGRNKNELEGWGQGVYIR

`O=C(C[S+]([O-])C(c1ccccc1)c1ccccc1)N1CCC(CN2CCCCC2)CC1` (stereo not shown) [Compound 44, 2-(benzhydrylsulfinyl)-1-(4-(piperidin-1-ylmethyl)piperidin-1-yl)ethanone] showed an IC50 [1] of 8400 nM and an IC50 [2] of 4100 nM.
`Cc1ccccc1C(CC(=O)N1CCC(CN2CCCCC2)(c2ccccc2)CC1)c1ccccc1C` [Compound 46, 1-(4-phenyl-4-(piperidin-1-ylmethyl)piperidin-1-yl)-3,3-di-o-tolylpropan-1-one] was tested, and the IC50 [1] was 320 nM and the IC50 [2] was 250 nM.
`O=C(C[S+]([O-])C(c1ccccc1)c1ccccc1)N1CCC(CN2CCCCC2)(c2ccccc2)CC1` (stereo not shown) [Compound 48, 2-(benzhydrylsulfinyl)-1-(4-phenyl-4-(piperidin-1-ylmethyl)piperidin-1-yl)ethanone] was tested, and the IC50 [1] was 1250 nM and the IC50 [2] was 930 nM.
In the case of `O=C(CC(c1ccccc1)c1ccccc1)N1CCC(C(c2ccccc2)N2CCCCC2)CC1` (stereo not shown) [Compound 50, 3,3-diphenyl-1-(4-(phenyl(piperidin-1-yl)methyl)piperidin-1-yl)propan-1-one], the IC50 [1] is reported as 2300 nM and the IC50 [2] is reported as 1500 nM.
`O=C(COC(c1ccccc1)c1ccccc1)N1CCC(C(c2ccccc2)N2CCCCC2)CC1` (stereo not shown) [Compound 52] was tested, and the IC50 [1] was 630 nM and the IC50 [2] was 450 nM.
With `CN1CCN(C(c2ccccc2)C2CCN(C(=O)CC(c3ccccc3)c3ccccc3)CC2)CC1` (stereo not shown) [Compound 54, 1-(4-((4-methylpiperazin-1-yl)(phenyl)methyl)piperidin-1-yl)-3,3-diphenylpropan-1-one] the IC50 [1] was 2360 nM and the IC50 [2] was 1320 nM.
Work on `CC1CN(C(c2ccccc2)C2CCN(C(=O)CC(c3ccccc3)c3ccccc3)CC2)CC(C)N1` (stereo not shown) [Compound 55, 1-(4-((3,5-dimethylpiperazin-1-yl)(phenyl)methyl)piperidin-1-yl)-3,3-diphenylpropan-1-one] yielded an IC50 [1] of 880 nM and an IC50 [2] of 420 nM.
With `Cc1ccccc1C(CC(=O)N1CCC(C(c2ccccc2)N2CCN(C)CC2)CC1)c1ccccc1C` (stereo not shown) [Compound 56, 1-(4-((4-methylpiperazin-1-yl)(phenyl)methyl)piperidin-1-yl)-3,3-di-o-tolylpropan-1-one] the IC50 [1] was 270 nM and the IC50 [2] was 150 nM.
For `Cc1ccccc1C(CC(=O)N1CCC(C(c2ccccc2)N2CC(C)NC(C)C2)CC1)c1ccccc1C` (stereo not shown) [Compound 57, 1-(4-((3,5-dimethylpiperazin-1-yl)(phenyl)methyl)piperidin-1-yl)-3,3-di-o-tolylpropan-1-one], the IC50 [1] was 930 nM and the IC50 [2] was 440 nM.
`O=C(NC(c1cccc(F)c1)c1cccc(F)c1)N1CCC(CN2CCCCC2)CC1` [Compound 60] gave an IC50 [1] of 5590 nM.
For `CC(C)(C)N1CCN(CC2CCN(C(=O)CC(c3ccccc3)c3ccccc3)CC2)CC1` [Compound 66, 1-(4-((4-tert-butylpiperazin-1-yl)methyl)piperidin-1-yl)-3,3-diphenylpropan-1-one], the IC50 [1] was 2180 nM and the IC50 [2] was 1230 nM.
`Cc1ccccc1C(CC(=O)N1CCC(CN2CCN(C(C)(C)C)CC2)CC1)c1ccccc1C` [Compound 67, 1-(4-((4-tert-butylpiperazin-1-yl)methyl)piperidin-1-yl)-3,3-di-o-tolylpropan-1-one] was tested, and the IC50 [1] was 530 nM and the IC50 [2] was 250 nM.
`CC(C)(C)N1CCN(CC2CCN(C(=O)CCCCC(c3ccccc3)c3ccccc3)CC2)CC1` [Compound 74, 1-(4-((4-tert-butylpiperazin-1-yl)methyl)piperidin-1-yl)-6,6-diphenylhexan-1-one] showed an IC50 [1] of 420 nM and an IC50 [2] of 290 nM.
With `CC(C)(C)N1CCN(C(=O)C2CCN(C(=O)CC(c3ccccc3)c3ccccc3)CC2)CC1` [Compound 78, 1-(4-(4-tert-butylpiperazine-1-carbonyl)piperidin-1-yl)-3,3-diphenylpropan-1-one] the IC50 [1] was > 6450 nM and the IC50 [2] was > 3340 nM.
Compound `Cc1ccccc1C(CC(=O)N1CCC(C(=O)N2CCN(C(C)(C)C)CC2)CC1)c1ccccc1C` [Compound 79, 1-(4-(4-tert-butylpiperazine-1-carbonyl)piperidin-1-yl)-3,3-di-o-tolylpropan-1-one] has an IC50 [1] of 1480 nM and an IC50 [2] of 940 nM.
`CC(C)(C)N1CCN(C(=O)C2CCN(C(=O)NC(c3ccccc3)c3ccccc3)CC2)CC1` [Compound 80, N-benzhydryl-4-(4-tert-butylpiperazin-1-carbonyl)piperidine-1-carboxamide] showed an IC50 [1] of 11600 nM.
`CC(C)(C)N1CCN(C(=O)C2CCN(C(=O)CC(c3ccc(F)cc3)c3ccc(F)cc3)CC2)CC1` [Compound 81, 1-(4-(4-tert-butylpiperazine-1-carbonyl)piperidin-1-yl)-3,3-bis(4-fluorophenyl)propan-1-one] was tested, and the IC50 [1] was 4400 nM and the IC50 [2] was 2470 nM.
For `CC(C)(C)N1CCN(C(=O)C2CCN(C(=O)COC(c3ccc(F)cc3)c3ccc(F)cc3)CC2)CC1` [Compound 82, 2-(bis(4-fluorophenyl)methoxy)-1-(4-(4-tert-butylpiperazine-1-carbonyl)piperidin-1-yl)ethanone], the IC50 [1] was 2590 nM and the IC50 [2] was 15600 nM.
With `COc1ccccc1C(CC(=O)N1CCC(C(c2ccccc2)N2CC(C)NC(C)C2)CC1)c1ccccc1OC` (stereo not shown) [Compound 83, 1-(4-((3,5-dimethylpiperazin-1-yl)(phenyl)methyl)piperidin-1-yl)-3,3-bis(2-methoxyphenyl)propan-1-one] the IC50 [1] was 3000 nM and the IC50 [2] was 1570 nM.
Compound `COc1ccccc1C(CC(=O)N1CCC(C(=O)N2CCN(C(C)(C)C)CC2)CC1)c1ccccc1OC` [Compound 87, 1-(4-(4-tert-butylpiperazine-1-carbonyl)piperidin-1-yl)-3,3-bis(2-methoxyphenyl)propan-1-one] has an IC50 [1] of 6910 nM and an IC50 [2] of 2710 nM.
`Cc1ccccc1C(CC(=O)N1CCC(C(c2ccccc2)N2CCN(C(C)(C)C)CC2)CC1)c1ccccc1C` (stereo not shown) [Compound 101, 1-(4-((4-tert-butylpiperazin-1-yl)(phenyl)methyl)piperidin-1-yl)-3,3-di-o-tolylpropan-1-one] showed an IC50 [1] of 1410 nM and an IC50 [2] of 800 nM.
